Assay results from patent publication US4517007A, “Phosphoroamide urease inhibitors and urease inhibited urea based fertilizer compositions” (Allied Corporation, priority 1983, dated 1985).

Tested on: urease
Experiment: Urease Inhibition Efficacy Test in soil (urea remaining after incubation)
Assay type: biochemical
Details: 800 micrograms test compound and 42.8 mg urea on 20 g air-dry Cazenovia silt loam, pH 7.0; incubated at 25° C. for three days; run in triplicate
Method: Efficacy tests were conducted to evaluate the efficacy of representative compounds as urease inhibitors. The inhibition tests were run in a New York soil (Cazenovia silt loam, pH 7.0). Evaluations (run in triplicate) consisted of applying 800 micrograms of the test compound in 5 mL of water and 42.8 mg of urea in 1 mL of water to 20 g of air-dry soil in a glass bottle. The bottle was capped with perforated aluminum foil and incubated at 25° C. for three days prior to extraction with 100 mL of a 2M KCl solution containing 0.5 mg of phenylmercuric acetate. The extracts were then analyzed for remaining urea using an autoanalyzer. Percent inhibition was calculated as [formula] where A is urea recovered from an unincubated sample (urea added to soil and immediately extracted); B is urea recovered from an inhibited sample; and C is urea recovered from the control (uninhibited sample).

SMILES	% Inhibition 40 micrograms per gram Cazenovia soil [%]
NP1(=O)Oc2ccccc2O1 [Experiment 1]	54
NP(N)(=O)Oc1cccc2c1OP(N)(=O)O2 (stereo not drawn) [Experiment 2]	5
NP(N)(=O)Oc1ccc2c(c1)OP(N)(=O)O2 (stereo not drawn) [Experiment 3]	21
